Measured values taken from ChEMBL document CHEMBL1201862, “PubChem BioAssay data set” (2004).
Each block holds one compound with its values, some of them ahead of it. Activity calls are given as the source filed them.

Tests used:
[1] = non-specific cell cytotoxicity, dose response, cytotoxicity control for PAX8 inhibitor project, plate reader, dry powder samples (AID 743021); assay type: functional, cell-based
[2] = target: T1, Ubiquitin-conjugating enzyme E2 N (Homo sapiens, UniProt P61088); assay type: functional;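 also: Dose-response confirmation in a TR-FRET assay detecting UBC13-driven polyubiquitin chain formation, inhibition measured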
T1 sequence (P61088 whole entry): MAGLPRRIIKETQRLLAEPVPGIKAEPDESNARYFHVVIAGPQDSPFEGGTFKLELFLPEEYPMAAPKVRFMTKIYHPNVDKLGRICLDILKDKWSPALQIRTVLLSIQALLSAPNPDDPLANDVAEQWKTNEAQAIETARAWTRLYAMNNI

Paired box protein Pax-8 = Paired box protein Pax-8 (Homo sapiens, UniProt Q06710); assay: inhibitors of PAX8-driven TPO luciferase reporter, dose response, RMG-I cells, cherry-pick (AID 687027); assay type: functional, cell-based;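 also: luciferase reporter driven by Pax8 target thyroperoxidase promoter measured by SteadyGlo luminescence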
[3] = MITF Orthogonal Assay: SK-MEL-5 CTG Assay Measured in Cell-Based System Using Plate Reader - 2084-02_Inhibitor_Dose_DryPowder_Activity_Set7.; assay type: functional
[4] = MITF: Counter assay: A375 proliferation Measured in Cell-Based System Using Plate Reader - 2084-03_Inhibitor_Dose_DryPowder_Activity_Set8.; assay type: functional; conditions: A-375
cells [5] = assay type: functional, cell-based
cells [6] = assay type: functional, cell-based; remark: listed apart in the source
[7] = target: T2, Trace amine-associated receptor 1 (Homo sapiens, UniProt Q96RJ0); assay: Fluorescence-based cell-based high throughput dose response assay to identify agonists of the human trace amine associated receptor 1 (TAAR1).; assay type: functional
T2 sequence (Q96RJ0 whole entry): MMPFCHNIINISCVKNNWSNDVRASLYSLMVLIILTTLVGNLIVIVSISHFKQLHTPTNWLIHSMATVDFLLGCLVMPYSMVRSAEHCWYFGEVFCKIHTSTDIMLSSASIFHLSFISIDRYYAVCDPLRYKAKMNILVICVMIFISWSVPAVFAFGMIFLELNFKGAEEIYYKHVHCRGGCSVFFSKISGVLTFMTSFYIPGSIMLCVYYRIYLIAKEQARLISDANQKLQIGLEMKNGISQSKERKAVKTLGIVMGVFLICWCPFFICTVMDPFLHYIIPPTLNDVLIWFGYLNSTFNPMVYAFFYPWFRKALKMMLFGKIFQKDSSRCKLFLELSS

[8] = target: T2, Trace amine-associated receptor 1; assay: Counterscreen for agonists of the human trace amine associated receptor 1 (hTAAR1): Fluorescence-based cell-based high throughput dose response assay to identify hTAAR1 agonist that also desensitize TAAR1 receptor response.; assay type: functional
[9] = cytotoxicity in OVCAR8 ovarian cancer cells, dose response, PAX8 project, cell-based, plate reader, dry powder samples (AID 743197); assay type: functional; conditions: OVCAR-8
[10] = IGROV1 ovarian cancer cell cytotoxicity, dose response, PAX8 inhibitor project, plate reader, dry powder samples (AID 743043); assay type: functional, cell-based; conditions: IGROV-1
[11] = NIH:OVCAR-3 ovarian cancer cell cytotoxicity, dose response, PAX8 inhibitor project, plate reader, dry powder samples (AID 743044); assay type: functional, cell-based
[12] = target: T3, Mannose-6-phosphate isomerase (Homo sapiens, UniProt P34949); assay: human PMI inhibitors, high substrate, primary screen, biochemical, fluorescence intensity, high mannose 6-phosphate (AID 1220)
T3 sequence (P34949 whole entry): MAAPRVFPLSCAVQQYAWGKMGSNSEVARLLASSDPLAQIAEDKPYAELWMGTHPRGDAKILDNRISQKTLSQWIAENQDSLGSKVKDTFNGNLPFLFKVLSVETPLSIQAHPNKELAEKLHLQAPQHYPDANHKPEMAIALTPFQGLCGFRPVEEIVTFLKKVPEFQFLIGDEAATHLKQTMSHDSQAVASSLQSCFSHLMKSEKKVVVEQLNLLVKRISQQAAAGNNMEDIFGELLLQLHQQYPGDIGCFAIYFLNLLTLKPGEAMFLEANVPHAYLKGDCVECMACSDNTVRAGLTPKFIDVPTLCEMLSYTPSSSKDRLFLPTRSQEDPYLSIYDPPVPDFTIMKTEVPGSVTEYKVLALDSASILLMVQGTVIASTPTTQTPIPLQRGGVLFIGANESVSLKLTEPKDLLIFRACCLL

[13] = target: Tyrosyl-DNA phosphodiesterase 2 (Homo sapiens, UniProt O95551); assay: human TDP2 enzyme inhibitors, dose response, biochemical, epi absorbance, IC50 (AID 743297)
Chain of Tyrosyl-DNA phosphodiesterase 2 (O95551 whole entry): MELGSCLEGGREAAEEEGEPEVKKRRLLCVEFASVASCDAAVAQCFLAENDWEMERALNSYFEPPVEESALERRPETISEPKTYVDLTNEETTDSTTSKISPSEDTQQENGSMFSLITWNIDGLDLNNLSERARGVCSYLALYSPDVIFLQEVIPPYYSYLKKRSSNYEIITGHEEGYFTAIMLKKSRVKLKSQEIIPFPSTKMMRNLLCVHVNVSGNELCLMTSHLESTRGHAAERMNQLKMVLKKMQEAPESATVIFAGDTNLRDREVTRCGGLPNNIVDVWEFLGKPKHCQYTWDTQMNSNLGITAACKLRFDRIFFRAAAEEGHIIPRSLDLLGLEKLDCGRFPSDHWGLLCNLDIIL

Chain of Paired box protein Pax-8 (Q06710 whole entry): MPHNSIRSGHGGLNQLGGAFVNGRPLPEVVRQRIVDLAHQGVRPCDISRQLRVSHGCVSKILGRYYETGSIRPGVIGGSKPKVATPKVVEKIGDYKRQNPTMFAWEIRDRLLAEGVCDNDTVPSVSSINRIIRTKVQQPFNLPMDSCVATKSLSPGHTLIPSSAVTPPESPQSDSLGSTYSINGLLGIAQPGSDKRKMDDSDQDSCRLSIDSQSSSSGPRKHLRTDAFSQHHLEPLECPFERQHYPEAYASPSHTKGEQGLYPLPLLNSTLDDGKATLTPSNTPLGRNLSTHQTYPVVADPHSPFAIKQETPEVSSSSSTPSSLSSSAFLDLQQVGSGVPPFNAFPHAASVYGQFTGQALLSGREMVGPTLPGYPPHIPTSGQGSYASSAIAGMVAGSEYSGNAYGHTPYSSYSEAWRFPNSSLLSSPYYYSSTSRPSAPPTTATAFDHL

SMILES: CCC[C@@H](CN[C@@H](CNC)[C@H](C)CC)NCC1CCC(C(C)(C)C)CC1 (stereo not given in full)
AC50 [1]: 37.7 µM (active) | IC50 [2]: > 20 µM (inactive) | AC50 (Paired box protein Pax-8): 14.4 µM (active)

SMILES: COc1ccc(NC2=CC(=O)c3ccccc3C2=O)cc1
AC50 [3]: 0.838 µM (active) | AC50 [4]: > 70 µM (inactive)

SMILES: CC(C)=C1C2CCC1C(C(=O)NCCc1ccccc1)C2C(=O)O (stereo not given)
IC50 (cells [5]): > 29.9 µM (inactive) | EC50 (cells [6]): > 29.9 µM (inactive) | EC50 [7]: 0.189 µM (active) | IC50 [8]: 2.42 µM (active)

SMILES: C[C@@H]1CN([C@H](C)CO)C(=O)c2cc(NC(=O)CCC(F)(F)F)ccc2O[C@@H](C)CCCCO[C@@H]1CN(C)Cc1ccc(Cl)c(Cl)c1
AC50 [9]: 61 µM (active) | AC50 (Paired box protein Pax-8): 7.47 µM (active) | AC50 [10]: 45.7 µM (active) | AC50 [11]: 33.3 µM (active)

IC50 [12]: > 50 µM (not active) | IC50 [13]: > 128 µM (inactive)
SMILES: Nn1cnnc1N/N=C\c1ccc(-c2ccccc2[N+](=O)[O-])o1
